Experimental findings from patent publication US11458149B1, “TEAD inhibitors and uses thereof” (Ikena Oncology, Inc., priority 2019, dated 2022) are described below.

Where two headings read alike, the source gives them in different places. Where only a bound is given, the exact number is not on record here.

For one data set, the system named is TEAD. The data set is described as follows: TEAD reporter assay (Hippo Pathway TEAD Reporter - MCF7 cell line, luciferase). The format is cell-based, human. As to conditions: read-out: TEAD Reporter Assay EC50. An excerpt:
TEAD inhibition can be assayed using Hippo Pathway TEAD Reporter—MCF7 Cell Line (BPS Bioscience, Catalog #: 60618).
The TEAD Reporter—MCF7 cell line contains the firefly luciferase gene under the control of TEAD responsive elements stably integrated into the human breast cancer cell line, MCF7. Inside the cells, basal unphosphorylated YAP/TAZ remains in the nucleus and induces the constitutive expression of luciferase reporter. The cell line is validated for the inhibition of the expression of luciferase reporter by the activators of the Hippo pathway.
• 1) Harvest TEAD Reporter—MCF7 cells from culture in growth medium and seed cells at a density of 35,000 cells per well into white clear-bottom 96-well microplate in 45 μl of assay medium. • 2) Incubate cells at 37° C. in a CO2 incubator for overnight. • 3) Dilute the activators (H2O2 or okadaic acid) stock in assay medium. Add 5 μl of diluted activators to the wells. The final concentration of DMSO in assay medium is 0.1%. • 4) Add 5 μl of assay medium with same concentration of DMSO without activator to control wells. • 5) Add 50 μl of assay medium with DMSO to cell-free control wells (for determining background luminescence). • 6) Set up each treatment in at least triplicate. • 7) Incubate cells at 37° C. in a CO2 incubator for 5-6 hours. • 8) Perform luciferase assay using the ONE-Step™ Luciferase Assay System following the protocol provided: Add 100 μl of ONE-Step™ Luciferase reagent per well and rock at room temperature for ˜15 minutes. Measure luminescence using a luminometer. • 9) Data Analysis: Obtain the background-subtracted luminescence by subtracting the average background luminescence (cell-free control wells) from the luminescence reading of all wells.
(§1) Certain compounds were tested in TEAD reporter assay, and in H226 and H28. A: EC50<0.1 uM; B: 0.1 uM≤EC50≤0.5 uM; C: EC50>0.5 uM.
A general note: In a reporter assay the amount or activity of a reporter protein is the signal.

A further data set deals with H226. Nature of the data set: Anti-proliferation assay in H226 cells. The data set is classed as cell-based, human. As to conditions: read-out: H226 EC50. The procedure:
as §1
(§2) Individual cell lines were grown in medium according to supplier instructions and seeded into 96-well plates at a density that ensured logarithmic growth over 72 hours. TEAD inhibitor compounds were administered to cells at a top concentration of 10 μm and subsequently a 10 point 3-fold serial dilution was conducted. After 72 hours, proliferation was quantified using Cell TITERGLO™ (Promega, Inc.) and compared to vehicle control. IC50 and EC50 values were generated using XLFit curve fitting software.

For the next data set, the system named is H28. The data set is described as follows: Anti-proliferation assay in H28 cells. The data set is classed as cell-based. As to conditions: Homo sapiens, NCI-H28. The procedure:
as §1, §2
The effect of isomer 2 of compound I-12 on cell proliferation is dependent on the presence of a Hippo/NF2 mutation. No effect is seen by isomer 2 of compound I-12 on the NF2 wild-type H28 cell line.

Data set [1] is described as follows: Mouse pharmacokinetics study. The data set is classed as in vivo. As to conditions: BALB/c mice, 10 mg/kg oral gavage, 5% DMS/95% PEG400, plasma. The procedure:
Formulated compounds were administered intravenously or orally via gavage to BALB/c mice. Typically, at 0.167, 0.5, 1, 2, 4, 6, 12, and 24 hours post-dose, blood was collected and processed to plasma by centrifugation and stored at −80° C. until analysis. Internal standard was added to each sample prior to protein precipitation with acetonitrile or TCA. The precipitates were filtered through a filter plate and the samples were analyzed by LC/MS/MS. A standard curve was prepared in plasma from typically from 1.0 ng/mL to 3000 ng/mL and processed in the same manner as the samples. Sample analysis was typically performed on a suitable LC/MS/MS system fitted with an analytical UPLC column and compounds eluted from the analytical column with a gradient from 30-95% 0.1% formic acid (v/v) in ACN: 0.1% formic acid (v/v) in water. Mass spectrometric detection of test compound and the internal standard was performed by […] in positive mode. The pharmacokinetics of each compound were analyzed by Phoenix WinNonlin software (Pharsight, St. Louis, Mo.) via noncompartmental analysis. FIG. 4 depicts pharmacokinetic (PK) properties of isomer 1 of compound I-186 following dosing in BALB/c mice.

Setting [2] is: Homo sapiens, MCF7, TEAD Reporter - MCF7 cells.
Setting [3] is: Homo sapiens, NCI-H226, H226 cells.

Consider `C=CC(=O)NC1CCN(S(=O)(=O)c2ccc(C(F)(F)F)cc2)CC1` [Compound I-50, N-[1-[4-(trifluoromethyl)phenyl]sulfonyl-4-piperidyl]prop-2-enamide], for which the EC50 in the data set on TEAD (setting [2]), with H226 (setting [3]) and in the data set with H28 was greater than 500 nM each time.
With `C=CC(=O)Nc1ccc(-c2cn(C)cn2)c(Nc2cccc(C(F)(F)F)c2)c1` [Compound I-40, N-[4-(1-methylimidazol-4-yl)-3-[3-(trifluoromethyl)anilino]phenyl]prop-2-enamide], the EC50 (commonly the concentration needed to bring the measured effect to its halfway point) in the data set on TEAD (setting [2]) was less than 100 nM; in the data set with H226 (setting [3]), less than 100 nM; in the data set on H28, greater than 500 nM.
With `C=CC(=O)Nc1ccc(C)c(Nc2ccc(Cl)cc2)c1` [Compound I-27, N-[3-(4-Chloroanilino)-4-methyl-phenyl]prop-2-enamide], the EC50 was less than 100 nM in the data set on TEAD (setting [2]), less than 100 nM in the data set on H226 (setting [3]) and greater than 500 nM in the data set on H28.
Take `C=CC(=O)NC1CCN(Cc2ccc(C(F)(F)F)cc2)c2ccccc21` (stereo in doubt) [Compound I-203, N-[(4R)-1-[[4-(Trifluoromethyl)phenyl]methyl]-3,4-dihydro-2H-quinolin-4-yl]prop-2-enamide]: the AUC(0-t) (commonly exposure summed from dosing to a finite time, without extrapolation to infinity) in data set [1] (mouse) worked out at 275 ng·h/mL. Also, in data set [1] (mouse, read-out: Cmax), the Cmax – broadly, the peak of the concentration-time curve – is 63.3 ng/mL.
In data set [1], `C=CC(=O)Nc1ccc(C)c(Oc2ccc(Cl)cc2)c1` [Compound P-5] gave an AUC0-last of 397 ng·h/mL and a Cmax of 246 ng/mL.
Turning to `C=CC(=O)NC1CCN(Cc2ccccc2C(F)(F)F)CC1` [Compound I-49, N-[1-[[2-(trifluoromethyl)phenyl]methyl]-4-piperidyl]prop-2-enamide], the EC50 in the data set on TEAD (setting [2]), in the data set on H226 (setting [3]) and with H28 was greater than 500 nM each time.
On to `C=CC(=O)Nc1cc(Oc2cccc(C(F)(F)F)c2)c2ccccc2c1` [Compound I-29, N-[4-[3-(Trifluoromethyl)phenoxy]-2-naphthyl]prop-2-enamide], for which the EC50 was less than 100 nM with TEAD (setting [2]), 100 to 500 nM with H226 (setting [3]) and greater than 500 nM in the data set on H28.
`C=CC(=O)N[C@H]1[C@@H]2CCN(Cc3ccc(C(F)(F)F)cc3)C[C@@H]21` [Compound I-208, N-[(1R,6R,7S)-4-[[4-(trifluoromethyl)phenyl]methyl]-4-azabicyclo[4.1.0]heptan-7-yl]prop-2-enamide] had an AUC(0-t) in data set [1] (mouse) of 226 ng·h/mL. Besides, in data set [1] (mouse, read-out: Cmax), the Cmax is 318 ng/mL.
`C=CC(=O)Nc1ccc(C)c(N(C)c2cccc(C(F)(F)F)c2)c1` [Compound I-35, N-[4-methyl-3-[N-methyl-3-(trifluoromethyl)anilino]phenyl]prop-2-enamide]: the EC50 in the data set with TEAD (setting [2]) was less than 100 nM; with H226 (setting [3]), less than 100 nM; in the data set with H28, greater than 500 nM.
In the case of `C=CC(=O)N1CC[C@@H](NCc2ccc(C(F)(F)F)cc2)C1` [Compound I-211, 1-[(3R)-3-[[4-(trifluoromethyl)phenyl]methylamino]pyrrolidin-1-yl]prop-2-en-1-one], in data set [1] (mouse), the AUC(0-t) amounted to 1260 ng·h/mL. Further, the Cmax in data set [1] (mouse, read-out: Cmax) stood at 1250 ng/mL.
In the case of `C=CC(=O)Nc1cccc(C)c1Oc1ccc(Cl)cc1` [Compound I-28, N-[2-(4-Chlorophenoxy)-3-methyl-phenyl]prop-2-enamide], the EC50 with TEAD (setting [2]), in the data set on H226 (setting [3]) and in the data set on H28 was greater than 500 nM in each case.
Turning to `C=CC(=O)NC1CCN([C@H](C)c2ccc(C(F)(F)F)cc2)CC1` [Compound I-62, N-[1-[(1R)-1-[4-(Trifluoromethyl)phenyl]ethyl]-4-piperidyl]prop-2-enamide], the concentration giving a half-maximal response (EC50) in the data set with TEAD (setting [2]) and with H226 (setting [3]) was less than 100 nM throughout. This molecule also came in with an AUC(0-t) in data set [1] (mouse) of 368 ng·h/mL. The Cmax in data set [1] (mouse, read-out: Cmax) was found to be 345 ng/mL.
With `C=CC(=O)NC1CCC(Nc2ccc(C(F)(F)F)cc2)CC1` (centres unmarked) [Compound I-56, N-[4-[4-(trifluoromethyl)anilino]cyclohexyl]prop-2-enamide], the EC50 with TEAD (TEAD Reporter - MCF7 cells) and with H226 (H226 cells) was greater than 500 nM throughout.
For `C=CC(=O)NC1CCN(Cc2ccc(Cl)cc2)CC1` [Compound I-394], the EC50 in the data set on TEAD (setting [2]) and with H226 (setting [3]) was 100 to 500 nM in each case.
Consider `C=CC(=O)NC1CCN(Cc2ccccc2)CC1` [Compound I-54, N-(1-benzyl-4-piperidyl)prop-2-enamide], for which the EC50 in the data set with TEAD (setting [2]) and in the data set with H226 (setting [3]) was greater than 500 nM each time.
`C=CC(=O)Nc1ccc(C)c(Oc2cncc(C(F)(F)F)c2)c1` [Compound I-30, N-[4-Methyl-3-[[5-(trifluoromethyl)-3-pyridyl]oxy]phenyl]prop-2-enamide]: the values for the EC50 in the data set on TEAD (setting [2]), in the data set on H226 (setting [3]) and with H28 were less than 100 nM, less than 100 nM and greater than 500 nM, respectively.
Regarding `C=CC(=O)NC1CCN(Cc2ccc(OC(F)(F)F)cc2)CC1` [Compound I-388], the EC50 in the data set with TEAD (setting [2]) and in the data set with H226 (setting [3]) was greater than 500 nM throughout.
For `C=CC(=O)NC1CCN(C(=O)c2ccc(C(F)(F)F)cc2)CC1` [Compound I-52, N-[1-[4-(trifluoromethyl)benzoyl]-4-piperidyl]prop-2-enamide], the EC50 in the data set on TEAD (setting [2]) and in the data set on H226 (setting [3]) was 100 to 500 nM in each case.
Take `C=CC(=O)NC1CCC(Oc2ccc(C(F)(F)F)cc2)CC1` (centres unmarked) [Compound I-70, N-[4-[4-(Trifluoromethyl)phenoxy]cyclohexyl]prop-2-enamide]: the EC50 with TEAD (TEAD Reporter - MCF7 cells) and in the data set on H226 (H226 cells) was less than 100 nM throughout.
As for `C=CC(=O)Nc1ccc(Br)c(Nc2cccc(C(F)(F)F)c2)c1` [Compound I-36, N-[4-bromo-3-[3-(trifluoromethyl)anilino]phenyl]prop-2-enamide], the concentration for a half-maximal effect (EC50) with TEAD (setting [2]) was less than 100 nM; in the data set on H226 (setting [3]), less than 100 nM; in the data set on H28, greater than 500 nM.
With `C=CC(=O)Nc1ccc(C)c(Oc2cc(C(F)(F)F)ccn2)c1` [Compound I-31, N-[4-methyl-3-[[4-(trifluoromethyl)-2-pyridyl]oxy]phenyl]prop-2-enamide], the EC50 is less than 100 nM in the data set with TEAD (setting [2]), less than 100 nM in the data set with H226 (setting [3]) and greater than 500 nM with H28.
Turning to `C=CC(=O)Nc1ccc(C)c(Nc2cccc(C(F)(F)F)c2)c1` [Compound I-33, N-[4-Methyl-3-[3-(trifluoromethyl)anilino]phenyl]prop-2-enamide], the EC50 was less than 100 nM with TEAD (setting [2]), less than 100 nM with H226 (setting [3]) and greater than 500 nM with H28.
For the molecule `C=CC(=O)Nc1ccc(C)c(Oc2cc(C(F)(F)F)ccc2Br)c1` [Compound I-41, N-[3-[2-bromo-5-(trifluoromethyl)phenoxy]-4-methyl-phenyl]prop-2-enamide], the EC50 in the data set with TEAD (setting [2]) and in the data set on H226 (setting [3]) was greater than 500 nM throughout.
As for `C=CC(=O)N1CCC(Nc2ccc(C(F)(F)F)cc2)CC1` [Compound I-59, 1-[4-[4-(trifluoromethyl)anilino]-1-piperidyl]prop-2-en-1-one], the EC50 in the data set with TEAD (setting [2]) and in the data set on H226 (setting [3]) was greater than 500 nM throughout.
As for `C=CC(=O)NC1[C@H]2CN(Cc3ccc(C(F)(F)F)cc3)C[C@@H]12` (stereo partly drawn) [Compound I-69, N-[(1R,5S)-3-[[4-(Trifluoromethyl)phenyl]methyl]-3-azabicyclo[3.1.0]hexan-6-yl]prop-2-enamide], the EC50 in the data set on TEAD (setting [2]) and in the data set on H226 (setting [3]) was less than 100 nM in each case. The molecule also returned an AUC(0-t) in data set [1] (mouse) of 1240 ng·h/mL. Moreover, the Cmax in data set [1] (mouse, read-out: Cmax) is 1160 ng/mL.
